What was measured:
Experiment in all cases: relative viability (nuclei count vs DMSO), 5 days (fraction); higher = more cells survive
[1] = compound: Cn1cc(-c2cnn3c(N)c(Br)c([C@@H]4CCCNC4)nc23)cn1 + CC(C)C[C@H](NC(=O)[C@H](Cc1ccccc1)NC(=O)c1cnccn1)B(O)O [Bortezomib] (partner 0.002 µM)
In short: (§1)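 Five library-drug doses in √10 steps were combined with a fixed anchor-drug dose, or a single drug was given alone, by pin tool to lung cancer cell lines in 1536-well plates the day after seeding. Nuclei were stained and counted after 5 days. Relative viability is the nuclei count in treated wells over that in vehicle wells, taken as the median of duplicate plates.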

[2] = compound: Cn1cc(-c2cnn3c(N)c(Br)c([C@@H]4CCCNC4)nc23)cn1 + NC(=O)Nc1cc(-c2cccc(F)c2)sc1C(=O)N[C@H]1CCCNC1 [AZD7762] (partner 0.2 µM)
In short: as §1

[3] = compound: Cn1cc(-c2cnn3c(N)c(Br)c([C@@H]4CCCNC4)nc23)cn1 + Cc1cc(Nc2cc(N3CCN(C)CC3)nc(Sc3ccc(NC(=O)C4CC4)cc3)n2)n[nH]1 [Tozasertib] (partner 0.1 µM)
In short: as §1

[4] = compound: Cn1cc(-c2cnn3c(N)c(Br)c([C@@H]4CCCNC4)nc23)cn1 + Nc1ncn([C@H]2C[C@H](O)[C@@H](CO)O2)c(=O)n1 [Decitabine] (partner 2 µM)
In short: as §1

Cell Line: H3255
- relative viability ([1]; first compound 0.05 µM): 0.676
- relative viability ([1]; first compound 0.1581 µM): 0.787
- relative viability ([1]; first compound 0.5 µM): 0.854
- relative viability ([1]; first compound 1.581 µM): 0.792
- relative viability ([1]; first compound 5 µM): 0.441
- relative viability ([2]; first compound 0.05 µM): 0.978
- relative viability ([2]; first compound 0.1581 µM): 0.896
- relative viability ([2]; first compound 0.5 µM): 1.05
- relative viability ([2]; first compound 1.581 µM): 0.746
- relative viability ([2]; first compound 5 µM): 0.527
- relative viability ([3]; first compound 0.05 µM): 0.614
- relative viability ([3]; first compound 0.1581 µM): 0.569
- relative viability ([3]; first compound 0.5 µM): 0.727
- relative viability ([3]; first compound 1.581 µM): 0.224
- relative viability ([3]; first compound 5 µM): 0.447
- relative viability ([4]; first compound 0.05 µM): 0.624
- relative viability ([4]; first compound 0.1581 µM): 0.586
- relative viability ([4]; first compound 0.5 µM): 0.585
- relative viability ([4]; first compound 1.581 µM): 0.647
- relative viability ([4]; first compound 5 µM): 0.474

Cell Line: NCI-H650
- relative viability ([1]; first compound 0.05 µM): 0.717
- relative viability ([1]; first compound 0.1581 µM): 0.748
- relative viability ([1]; first compound 0.5 µM): 0.69
- relative viability ([1]; first compound 1.581 µM): 0.773
- relative viability ([1]; first compound 5 µM): 0.603
- relative viability ([2]; first compound 0.05 µM): 0.954
- relative viability ([2]; first compound 0.1581 µM): 0.923
- relative viability ([2]; first compound 0.5 µM): 1.1
- relative viability ([2]; first compound 1.581 µM): 1.04
- relative viability ([2]; first compound 5 µM): 0.928
- relative viability ([3]; first compound 0.05 µM): 0.732
- relative viability ([3]; first compound 0.1581 µM): 0.753
- relative viability ([3]; first compound 0.5 µM): 0.821
- relative viability ([3]; first compound 1.581 µM): 0.654
- relative viability ([3]; first compound 5 µM): 0.603
- relative viability ([4]; first compound 0.05 µM): 0.317
- relative viability ([4]; first compound 0.1581 µM): 0.341
- relative viability ([4]; first compound 0.5 µM): 0.34
- relative viability ([4]; first compound 1.581 µM): 0.39
- relative viability ([4]; first compound 5 µM): 0.434

Cell Line: LCLC-103H
- relative viability ([1]; first compound 0.05 µM): 1.03
- relative viability ([1]; first compound 0.1581 µM): 1.2
- relative viability ([1]; first compound 0.5 µM): 1.18
- relative viability ([1]; first compound 1.581 µM): 0.841
- relative viability ([1]; first compound 5 µM): 1.16
- relative viability ([2]; first compound 0.05 µM): 0.834
- relative viability ([2]; first compound 0.1581 µM): 0.914
- relative viability ([2]; first compound 0.5 µM): 0.728
- relative viability ([2]; first compound 1.581 µM): 0.738
- relative viability ([2]; first compound 5 µM): 0.685
- relative viability ([3]; first compound 0.05 µM): 0.543
- relative viability ([3]; first compound 0.1581 µM): 0.57
- relative viability ([3]; first compound 0.5 µM): 0.469
- relative viability ([3]; first compound 1.581 µM): 0.364
- relative viability ([3]; first compound 5 µM): 0.313
- relative viability ([4]; first compound 0.05 µM): 0.745
- relative viability ([4]; first compound 0.1581 µM): 0.73
- relative viability ([4]; first compound 0.5 µM): 0.809
- relative viability ([4]; first compound 1.581 µM): 0.695
- relative viability ([4]; first compound 5 µM): 0.816

Cell Line: LOU-NH91
- relative viability ([1]; first compound 0.05 µM): 0.504
- relative viability ([1]; first compound 0.1581 µM): 0.492
- relative viability ([1]; first compound 0.5 µM): 0.513
- relative viability ([1]; first compound 1.581 µM): 0.442
- relative viability ([1]; first compound 5 µM): 0.481
- relative viability ([2]; first compound 0.05 µM): 0.373
- relative viability ([2]; first compound 0.1581 µM): 0.744
- relative viability ([2]; first compound 0.5 µM): 0.761
- relative viability ([2]; first compound 1.581 µM): 0.727
- relative viability ([2]; first compound 5 µM): 0.642
- relative viability ([3]; first compound 0.05 µM): 0.585
- relative viability ([3]; first compound 0.1581 µM): 0.585
- relative viability ([3]; first compound 0.5 µM): 0.609
- relative viability ([3]; first compound 1.581 µM): 0.683
- relative viability ([3]; first compound 5 µM): 0.497
- relative viability ([4]; first compound 0.05 µM): 0.82
- relative viability ([4]; first compound 0.1581 µM): 0.81
- relative viability ([4]; first compound 0.5 µM): 0.796
- relative viability ([4]; first compound 1.581 µM): 0.801
- relative viability ([4]; first compound 5 µM): 0.729

Cell Line: NCI-H3122
- relative viability ([1]; first compound 0.05 µM): 1.12
- relative viability ([1]; first compound 0.1581 µM): 1.02
- relative viability ([1]; first compound 0.5 µM): 1.04
- relative viability ([1]; first compound 1.581 µM): 1.11
- relative viability ([1]; first compound 5 µM): 1.05
- relative viability ([2]; first compound 0.05 µM): 0.981
- relative viability ([2]; first compound 0.1581 µM): 1.07
- relative viability ([2]; first compound 0.5 µM): 1
- relative viability ([2]; first compound 1.581 µM): 0.883
- relative viability ([2]; first compound 5 µM): 1.16
- relative viability ([3]; first compound 0.05 µM): 0.508
- relative viability ([3]; first compound 0.1581 µM): 0.403
- relative viability ([3]; first compound 0.5 µM): 0.401
- relative viability ([3]; first compound 1.581 µM): 0.283
- relative viability ([3]; first compound 5 µM): 0.329
- relative viability ([4]; first compound 0.05 µM): 0.427
- relative viability ([4]; first compound 0.1581 µM): 0.454
- relative viability ([4]; first compound 0.5 µM): 0.329
- relative viability ([4]; first compound 1.581 µM): 0.413
- relative viability ([4]; first compound 5 µM): 0.511

Cell Line: PC-3 [JPC-3]
- relative viability ([1]; first compound 0.05 µM): 0.818
- relative viability ([1]; first compound 0.1581 µM): 0.834
- relative viability ([1]; first compound 0.5 µM): 0.76
- relative viability ([1]; first compound 1.581 µM): 0.755
- relative viability ([1]; first compound 5 µM): 0.907
- relative viability ([2]; first compound 0.05 µM): 0.774
- relative viability ([2]; first compound 0.1581 µM): 0.766
- relative viability ([2]; first compound 1.581 µM): 0.616
- relative viability ([2]; first compound 5 µM): 0.637
- relative viability ([3]; first compound 0.05 µM): 0.812
- relative viability ([3]; first compound 0.1581 µM): 0.986
- relative viability ([3]; first compound 0.5 µM): 0.94
- relative viability ([3]; first compound 1.581 µM): 0.75
- relative viability ([3]; first compound 5 µM): 0.91
- relative viability ([4]; first compound 0.05 µM): 0.759
- relative viability ([4]; first compound 0.1581 µM): 0.86
- relative viability ([4]; first compound 1.581 µM): 0.808
- relative viability ([4]; first compound 5 µM): 0.853

Cell Line: NCI-H1651
- relative viability ([1]; first compound 0.05 µM): 0.914
- relative viability ([1]; first compound 0.1581 µM): 0.954
- relative viability ([1]; first compound 0.5 µM): 0.89
- relative viability ([1]; first compound 1.581 µM): 0.898
- relative viability ([1]; first compound 5 µM): 0.56
- relative viability ([2]; first compound 0.05 µM): 0.436
- relative viability ([2]; first compound 0.1581 µM): 0.407
- relative viability ([2]; first compound 0.5 µM): 0.387
- relative viability ([2]; first compound 1.581 µM): 0.378
- relative viability ([2]; first compound 5 µM): 0.219
- relative viability ([3]; first compound 0.05 µM): 0.586
- relative viability ([3]; first compound 0.1581 µM): 0.721
- relative viability ([3]; first compound 0.5 µM): 0.641
- relative viability ([3]; first compound 1.581 µM): 0.429
- relative viability ([3]; first compound 5 µM): 0.176
- relative viability ([4]; first compound 0.05 µM): 0.566
- relative viability ([4]; first compound 0.1581 µM): 0.648
- relative viability ([4]; first compound 0.5 µM): 0.613
- relative viability ([4]; first compound 1.581 µM): 0.552
- relative viability ([4]; first compound 5 µM): 0.385

Cell Line: NCI-H2087
- relative viability ([1]; first compound 0.05 µM): 0.893
- relative viability ([1]; first compound 0.1581 µM): 0.876
- relative viability ([1]; first compound 0.5 µM): 0.872
- relative viability ([1]; first compound 1.581 µM): 0.622
- relative viability ([1]; first compound 5 µM): 0.911
- relative viability ([2]; first compound 0.05 µM): 1.32
- relative viability ([2]; first compound 0.1581 µM): 1.38
- relative viability ([2]; first compound 0.5 µM): 1.41
- relative viability ([2]; first compound 1.581 µM): 1.22
- relative viability ([2]; first compound 5 µM): 1.42
- relative viability ([3]; first compound 0.05 µM): 0.222
- relative viability ([3]; first compound 0.1581 µM): 0.253
- relative viability ([3]; first compound 0.5 µM): 0.241
- relative viability ([3]; first compound 1.581 µM): 0.263
- relative viability ([3]; first compound 5 µM): 0.174
- relative viability ([4]; first compound 0.05 µM): 0.258
- relative viability ([4]; first compound 0.1581 µM): 0.25
- relative viability ([4]; first compound 0.5 µM): 0.231
- relative viability ([4]; first compound 1.581 µM): 0.331
- relative viability ([4]; first compound 5 µM): 0.347

From the supplement of paper PMC10307832
